Values quoted from earlier work as cited in patent publication US20060100214A1, “Fast dissolving and taste masked oral dosage form comprising sildenafil” (priority 2002, published 2006).

Structure (SMILES): CCCc1nn(C)c2c(=O)[nH]c(-c3cc(S(=O)(=O)N4CCN(C)CC4)ccc3OCC)nc12.O=C(O)CC(O)(CC(=O)O)C(=O)O [Sildenafil citrate, 1-[[3-(6,7-dihydro-1-methyl-7-oxo-3-propyl-1H-pyrazolo[4,3-d]pyrimidin-5-yl)-4-ethoxyphenyl]sulfonyl]-4-methylpiperazine citrate]
- maximal solubility (at pH2.0): approximately 24 mg/ml

Structure (SMILES): CCCc1nn(C)c2c(=O)[nH]c(-c3cc(S(=O)(=O)N4CCN(C)CC4)ccc3OCC)nc12 [sildenafil free base, 1-[[3-(6,7-dihydro-1-methyl-7-oxo-3-propyl-1H-pyrazolo[4,3-d]pyrimidin-5-yl)-4-ethoxyphenyl]sulfonyl]-4-methylpiperazine]
- water solubility (as said in US 20020002172A1): very low water solubility
